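Protocol summary: plate cells (96-well), add compound at 5 concentrations, incubate 48 h, interpolate endpoints linearly. Abbreviation: GI50, concentration required for 50% inhibition of growth.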 The source made the active and inactive calls. Rule as the data show it: active = GI50 up to about 1.1 µM and inactive = higher.
Tests used:
Assay in all cases: inhibition of tumour cell growth, NCI panel, 48 h
HL-60 = tested on: HL-60
LOX IMVI = tested on: LOX IMVI
COLO 205 = tested on: COLO 205
ACHN = tested on: ACHN
SW-620 = tested on: SW-620
Malme-3M = tested on: Malme-3M
SK-OV-3 = tested on: SK-OV-3
CCRF-CEM = tested on: CCRF-CEM
IGROV-1 = tested on: IGROV-1
SF-539 = tested on: SF-539
MDA-N = tested on: MDA-N
HCC 2998 = tested on: HCC 2998
HCT-116 = tested on: HCT-116
Hs-578T = tested on: Hs-578T
UO-31 = tested on: UO-31
K562 = tested on: K562
KM12 = tested on: KM12
U-251 = tested on: U-251
MDA-MB-231 = tested on: MDA-MB-231
SNB-75 = tested on: SNB-75

Compound | GI50 (HL-60) | GI50 (LOX IMVI) | GI50 (COLO 205) | GI50 (ACHN) | GI50 (SW-620) | GI50 (Malme-3M) | GI50 (SK-OV-3) | GI50 (CCRF-CEM) | GI50 (IGROV-1) | GI50 (SF-539) | GI50 (MDA-N) | GI50 (HCC 2998) | GI50 (HCT-116) | GI50 (Hs-578T) | GI50 (UO-31) | GI50 (K562) | GI50 (KM12) | GI50 (U-251) | GI50 (MDA-MB-231) | GI50 (SNB-75)
COc1ccnc2c1C(=O)c1nc3ccccc3c3ccnc-2c13 | 0.06 µM (active) | 0.155 µM (active) | 0.0796 µM (active) | 0.0634 µM (active) | 0.0809 µM (active) | 0.262 µM (active) | 0.167 µM (active) | 0.295 µM (active) | 0.177 µM (active) | 0.373 µM (active) | 0.25 µM (active) | 0.0687 µM (active) | 0.0902 µM (active) | 1.55 µM (inactive) | 0.161 µM (active) | 0.163 µM (active) | 0.101 µM (active) | 0.204 µM (active) | 0.21 µM (active) | 0.04 µM (active)
OCCCc1ccc2c(c1)[C@H](CO)[C@@H](c1ccc(O)cc1)O2 | 78.2 µM (inactive) | > 100 µM (inactive) | > 100 µM (inactive) | > 100 µM (inactive) | > 100 µM (inactive) | 13.8 µM (inactive) | > 100 µM (inactive) | 76 µM (inactive) | > 100 µM (inactive) | > 100 µM (inactive) | 87.7 µM (inactive) | 16.6 µM (inactive) | > 100 µM (inactive) | 19.5 µM (inactive) | 68.2 µM (inactive) | > 100 µM (inactive) | 82.4 µM (inactive) | > 100 µM (inactive) | > 100 µM (inactive) | > 100 µM (inactive)
O=[N+]([O-])c1cc(Cl)ccc1Sc1ccccc1 | 61.7 µM (inactive) | > 100 µM (inactive) | > 100 µM (inactive) | > 100 µM (inactive) | > 100 µM (inactive) | > 100 µM (inactive) | > 100 µM (inactive) | 89.9 µM (inactive) | > 100 µM (inactive) | > 100 µM (inactive) | 98.4 µM (inactive) | 87.9 µM (inactive) | 34.3 µM (inactive) | > 100 µM (inactive) | 23.6 µM (inactive) | > 100 µM (inactive) | 98.6 µM (inactive) | 5.89 µM (inactive) | > 100 µM (inactive) | 20.8 µM (inactive)
Cc1cc(S(=O)(=O)Nc2nc(N)n(C)n2)c(S)cc1Cl | > 10 µM (inactive) | > 10 µM (inactive) | > 10 µM (inactive) | > 10 µM (inactive) | > 10 µM (inactive) | > 10 µM (inactive) | > 10 µM (inactive) | > 10 µM (inactive) | > 10 µM (inactive) | > 10 µM (inactive) | > 10 µM (inactive) | > 10 µM (inactive) | > 10 µM (inactive) | > 10 µM (inactive) | > 10 µM (inactive) | > 10 µM (inactive) | > 10 µM (inactive) | > 10 µM (inactive) | > 10 µM (inactive) | > 10 µM (inactive)
COc1cc([C@H]2Oc3c(OC)cc(CCCO)cc3[C@@H]2CO)ccc1O [DIHYDRODEHYDRODICONIFERY ALCOHOL] | > 100 µM (inactive) | > 100 µM (inactive) | > 100 µM (inactive) | > 100 µM (inactive) | > 100 µM (inactive) | > 100 µM (inactive) | > 100 µM (inactive) | > 100 µM (inactive) | > 100 µM (inactive) | > 100 µM (inactive) | > 100 µM (inactive) | > 100 µM (inactive) | > 100 µM (inactive) | 47.2 µM (inactive) | 57.8 µM (inactive) | > 100 µM (inactive) | > 100 µM (inactive) | > 100 µM (inactive) | 27.2 µM (inactive) | 44.9 µM (inactive)
C=C(CC)C(=O)c1ccc(OCC(=O)O)c(Cl)c1Cl [ETHACRYNIC ACID] | 28.3 µM (inactive) | 14.7 µM (inactive) | 19 µM (inactive) | 26.8 µM (inactive) | 19.3 µM (inactive) | 16.9 µM (inactive) | 48.1 µM (inactive) | 35.8 µM (inactive) | 22 µM (inactive) | 7.87 µM (inactive) | 23.1 µM (inactive) | 17.8 µM (inactive) | 23.1 µM (inactive) | 20.5 µM (inactive) | 19.5 µM (inactive) | 53 µM (inactive) | 5.5 µM (inactive) | 16 µM (inactive) | 19.6 µM (inactive) | 21.8 µM (inactive)
S=P(N1CC1)(N1CC1)N1CC1 [THIOTEPA] | 7.45 µM (inactive) | 39.6 µM (inactive) | 141 µM (inactive) | 14.6 µM (inactive) | 140 µM (inactive) | 141 µM (inactive) | 101 µM (inactive) | 9.46 µM (inactive) | 158 µM (inactive) | 37.7 µM (inactive) | 161 µM (inactive) | 111 µM (inactive) | 116 µM (inactive) | 361 µM (inactive) | 97.9 µM (inactive) | 143 µM (inactive) | 171 µM (inactive) | 58.7 µM (inactive) | 274 µM (inactive) | 97.3 µM (inactive)

Source: ChEMBL document CHEMBL1201862, “PubChem BioAssay data set” (2004)
